In PubChem BioAssay AID2060606 (Molecular Pharmacology Branch, DTP, NCI, 2025):
pIC50: −log10 of the molar value.

Test system: 922993-354-T-J3-PDC complex spheroids, viability, % test/control
Assay: Anticancer human tumor 922993-354-T-J3-PDC patient-derived endometrial carcinoma cell line growth inhibition [CLK]
Conditions: for pIC50: curve of first compound; for viability, T/C: stronger effect = lower value
In short: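 Patient-derived tumor cells grown as complex spheroids with HUVEC endothelial cells and mesenchymal stem cells, treated with drug combinations. Concentrations descend in half-log steps from near clinical Cmax, or from 10 microM if Cmax unknown.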

[1] = second compound 0.0316 µM, first compound 0.0316 µM
[2] = second compound 0.0316 µM, first compound 0.1 µM
[3] = second compound 0.0316 µM, first compound 0.316 µM
[4] = second compound 0.0316 µM, first compound 1 µM
[5] = second compound 0.0316 µM, first compound 3.16 µM
[6] = second compound 0.0316 µM, first compound 10 µM
[7] = second compound 0.1 µM, first compound 0.0316 µM
[8] = second compound 0.1 µM, first compound 0.1 µM
[9] = second compound 0.1 µM, first compound 0.316 µM
[10] = second compound 0.1 µM, first compound 1 µM
[11] = second compound 0.1 µM, first compound 3.16 µM
[12] = second compound 0.1 µM, first compound 10 µM
[13] = second compound 0.316 µM, first compound 0.0316 µM
[14] = second compound 0.316 µM, first compound 0.1 µM
[15] = second compound 0.316 µM, first compound 0.316 µM
[16] = second compound 0.316 µM, first compound 1 µM
[17] = second compound 0.316 µM, first compound 3.16 µM
[18] = second compound 0.316 µM, first compound 10 µM
[19] = second compound 1 µM, first compound 0.0316 µM
[20] = second compound 1 µM, first compound 0.1 µM
[21] = second compound 1 µM, first compound 0.316 µM
[22] = second compound 1 µM, first compound 1 µM
[23] = second compound 1 µM, first compound 3.16 µM
[24] = second compound 1 µM, first compound 10 µM
[25] = second compound 3.16 µM, first compound 0.0316 µM
[26] = second compound 3.16 µM, first compound 0.1 µM
[27] = second compound 3.16 µM, first compound 0.316 µM
[28] = second compound 3.16 µM, first compound 1 µM
[29] = second compound 3.16 µM, first compound 3.16 µM
[30] = second compound 3.16 µM, first compound 10 µM
[31] = second compound 10 µM, first compound 0.0316 µM
[32] = second compound 10 µM, first compound 0.1 µM
[33] = second compound 10 µM, first compound 0.316 µM
[34] = second compound 10 µM, first compound 1 µM
[35] = second compound 10 µM, first compound 3.16 µM
[36] = second compound 10 µM, first compound 10 µM
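Also: spheroids exposed to the agents for 7 days before readout.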

## C#Cc1c(F)ccc2cc(O)cc(-c3ncc4c(N5CC6CCC(C5)N6)nc(OCC56CCCN5CC(F)C6)nc4c3F)c12 (centres undefined) + CN1CCN(c2cc(C(=O)Nc3cc4cc(-c5cnn(C)c5)ccc4cn3)ccn2)CC1
Second compound 0.0316 µM
  pIC50: < 5.00
Second compound 0.1 µM
  pIC50: < 5.00
Second compound 0.316 µM
  pIC50: 7.25
Second compound 1 µM
  pIC50: > 7.50
Second compound 3.16 µM
  pIC50: > 7.50
Second compound 10 µM
  pIC50: > 7.50
[1]
  viability, T/C: 123%
[2]
  viability, T/C: 113%
[3]
  viability, T/C: 122%
[4]
  viability, T/C: 107%
[5]
  viability, T/C: 111%
[6]
  viability, T/C: 93.3%
[7]
  viability, T/C: 99.5%
[8]
  viability, T/C: 105%
[9]
  viability, T/C: 91.9%
[10]
  viability, T/C: 92.4%
[11]
  viability, T/C: 103%
[12]
  viability, T/C: 88%
[13]
  viability, T/C: 57%
[14]
  viability, T/C: 47.9%
[15]
  viability, T/C: 38.6%
[16]
  viability, T/C: 42.1%
[17]
  viability, T/C: 41.4%
[18]
  viability, T/C: 41.3%
[19]
  viability, T/C: 0.17%
[20]
  viability, T/C: 0.42%
[21]
  viability, T/C: 1.47%
[22]
  viability, T/C: 0.44%
[23]
  viability, T/C: 0.92%
[24]
  viability, T/C: 0.14%
[25]
  viability, T/C: 0.14%
[26]
  viability, T/C: 0.2%
[27]
  viability, T/C: 0.11%
[28]
  viability, T/C: 0.11%
[29]
  viability, T/C: 2.16%
[30]
  viability, T/C: 2.87%
[31]
  viability, T/C: 0.88%
[32]
  viability, T/C: 0.85%
[33]
  viability, T/C: 1.6%
[34]
  viability, T/C: 0.15%
[35]
  viability, T/C: 2.52%
[36]
  viability, T/C: 3.71%

## CC(CO)NC(=O)c1cc(-c2ccc(Cl)cc2)nn(-c2cnn(C)c2)c1=O (centres undefined) + CN1CCN(c2cc(C(=O)Nc3cc4cc(-c5cnn(C)c5)ccc4cn3)ccn2)CC1
Second compound 0.0316 µM
  pIC50: < 5.00
Second compound 0.1 µM
  pIC50: < 5.00
Second compound 0.316 µM
  pIC50: > 7.50
Second compound 1 µM
  pIC50: > 7.50
Second compound 3.16 µM
  pIC50: > 7.50
Second compound 10 µM
  pIC50: > 7.50
[1]
  viability, T/C: 119%
[2]
  viability, T/C: 98.2%
[3]
  viability, T/C: 93.1%
[4]
  viability, T/C: 98%
[5]
  viability, T/C: 84.8%
[6]
  viability, T/C: 96%
[7]
  viability, T/C: 95.2%
[8]
  viability, T/C: 77.1%
[9]
  viability, T/C: 80.8%
[10]
  viability, T/C: 69.5%
[11]
  viability, T/C: 77.2%
[12]
  viability, T/C: 72.1%
[13]
  viability, T/C: 47.6%
[14]
  viability, T/C: 49.6%
[15]
  viability, T/C: 40%
[16]
  viability, T/C: 33.6%
[17]
  viability, T/C: 35.3%
[18]
  viability, T/C: 35.9%
[19]
  viability, T/C: 0.14%
[20]
  viability, T/C: 0.16%
[21]
  viability, T/C: 0.16%
[22]
  viability, T/C: 0.12%
[23]
  viability, T/C: 0.98%
[24]
  viability, T/C: 1.3%
[25]
  viability, T/C: 0.15%
[26]
  viability, T/C: 0.63%
[27]
  viability, T/C: 0.87%
[28]
  viability, T/C: 1.29%
[29]
  viability, T/C: 1.41%
[30]
  viability, T/C: 0.14%
[31]
  viability, T/C: 0.2%
[32]
  viability, T/C: 0.21%
[33]
  viability, T/C: 2%
[34]
  viability, T/C: 0.26%
[35]
  viability, T/C: 0.7%
[36]
  viability, T/C: 1.23%
